In ChEMBL document CHEMBL1201862, “PubChem BioAssay data set” (2004):
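Results reflect a 48-hour exposure of cells in 96-well plates to compound at five concentrations. GI50 is the concentration that inhibits growth by half.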 Active and inactive are the calls of the source. Rule as the data show it: active = GI50 up to about 1.1 µM and inactive = higher. Where a SMILES comes first, the peptide text is derived from it. [ ]: non-standard residue; d: D form. The star is where a group is joined. ξ: configuration not given here. ξPhe(4-NO2) = NC(Cc1ccc([N+](=O)[O-])cc1)C(=O)O; Boc = CC(C)(C)OC(=O)*

What was measured:
Experiment in all cases: DTP human tumour cell line panel, 48 h
[1] = system: 786-0
[2] = system: ACHN
[3] = system: COLO 205
[4] = system: DU-145
[5] = system: HCT-116
[6] = system: HOP-62
[7] = system: IGROV-1
[8] = system: KM12
[9] = system: MCF7
[10] = system: MDA-MB-435
[11] = system: Malme-3M
[12] = system: NCI-H460
[13] = system: NCI-H522
[14] = system: OVCAR-5
[15] = system: RPMI-8226
[16] = system: SK-MEL-2
[17] = system: SNB-19
[18] = system: SW-620
[19] = system: UACC-257
[20] = system: UO-31

Measured: GI50

CCCCCCCCCCCCCCCCCCNc1ccn(C2OC(CO)C(O)C2O)c(=O)n1 (stereo unspecified)
inactive: [1] > 100 µM | [2] > 100 µM | [3] 38 µM | [4] > 100 µM | [5] > 100 µM | [6] > 100 µM | [7] 14.9 µM | [8] 84.1 µM | [9] 57.1 µM | [10] > 100 µM | [11] > 100 µM | [12] > 100 µM | [13] 19.8 µM | [14] > 100 µM | [15] 34 µM | [16] > 100 µM | [17] > 25.4 µM | [18] > 100 µM | [19] > 100 µM | [20] > 100 µM

COC(=O)/C=C1/OC(c2ccc(C)cc2C)=CC1=O
inactive: [1] 11 µM | [2] 15.8 µM | [3] 16.6 µM | [4] 15.5 µM | [5] 11.5 µM | [6] 25.2 µM | [7] 4.47 µM | [8] 17.6 µM | [9] 8.26 µM | [10] 15.7 µM | [11] 16.4 µM | [12] 19 µM | [13] 14.1 µM | [14] 15.7 µM | [15] 3.63 µM | [17] > 10 µM | [18] 2.82 µM | [20] 16.8 µM

O=C(Nc1ccccc1)Oc1ccc(C(=S)Nc2ccc(Br)cc2)cc1
inactive: [1] 19.4 µM | [2] 23.3 µM | [3] 17.2 µM | [4] 31.5 µM | [5] 17.3 µM | [6] 28.6 µM | [7] 6.43 µM | [8] 12.8 µM | [9] 19.1 µM | [10] 16.9 µM | [11] 19.2 µM | [12] 16.9 µM | [13] 11 µM | [14] 16.6 µM | [15] 36.6 µM | [16] 18.3 µM | [18] 24.5 µM | [19] 20.5 µM

CC(CO)CCNc1ncnc2c1ncn2CCC#N (stereo unspecified)
inactive: [1] > 100 µM | [2] > 100 µM | [3] > 100 µM | [4] > 100 µM | [5] > 100 µM | [6] > 100 µM | [7] > 100 µM | [8] > 100 µM | [9] > 100 µM | [10] > 100 µM | [11] > 100 µM | [12] > 100 µM | [13] > 100 µM | [14] > 100 µM | [15] > 100 µM | [17] > 100 µM | [18] > 100 µM | [19] > 100 µM | [20] > 100 µM

C[C@@H]1O[C@@H]2OCC[C@@H]2C2=C1C(=O)c1ccccc1C2=O
inactive: [1] 12.3 µM | [2] 12.2 µM | [3] 23.9 µM | [4] 9.1 µM | [6] 17.3 µM | [7] 1.98 µM | [8] 15.2 µM | [9] 1.25 µM | [10] 1.94 µM | [11] 2.19 µM | [12] 16.7 µM | [13] 6.65 µM | [14] 1.81 µM | [15] 7.23 µM | [16] 11 µM | [17] 18.7 µM | [18] 4.04 µM | [19] 11.5 µM | [20] 10.8 µM

CC1=[N+]([O-])C(C)(C)N(O)C1(C)C
inactive: [1] > 100 µM | [2] > 100 µM | [3] > 100 µM | [4] > 100 µM | [5] > 100 µM | [6] > 100 µM | [7] > 100 µM | [8] > 100 µM | [9] > 100 µM | [10] > 100 µM | [11] > 100 µM | [12] > 100 µM | [13] > 100 µM | [14] > 100 µM | [15] > 100 µM | [16] > 100 µM | [17] > 100 µM | [18] > 100 µM | [20] > 100 µM

N=c1oc2c(Cl)cc(Cl)cc2cc1C(=O)Nc1cccc2ccccc12
inactive: [1] 5.71 µM | [2] 3.52 µM | [3] 7.57 µM | [4] > 89.9 µM | [5] 4.79 µM | [6] 7.98 µM | [7] 5.32 µM | [8] 53.8 µM | [9] > 53.6 µM | [10] 27 µM | [11] 26.3 µM | [12] 5.01 µM | [13] 8.17 µM | [14] 21.7 µM | [15] 10 µM | [17] 19.5 µM | [18] 3.62 µM | [19] > 100 µM | [20] 10.2 µM

CCNC(=O)CNC(=O)C(Cc1ccc([N+](=O)[O-])cc1)NC(=O)OC(C)(C)C (stereo unspecified) (Boc-[ξPhe(4-NO2)]-Gly-NHEt)
inactive: [1] > 100 µM | [2] > 100 µM | [3] > 100 µM | [4] > 100 µM | [5] > 100 µM | [6] > 100 µM | [7] > 100 µM | [8] > 100 µM | [9] > 100 µM | [10] > 100 µM | [11] > 100 µM | [12] > 100 µM | [13] > 100 µM | [14] > 100 µM | [15] > 100 µM | [17] > 100 µM | [18] > 100 µM | [20] > 100 µM

COC(=O)/C=C1/SC(/C(=C(/[O-])OC)[n+]2ccc3ccccc3c2)=NC1=O
inactive: [1] > 100 µM | [2] > 100 µM | [3] > 100 µM | [4] > 100 µM | [5] > 100 µM | [6] > 100 µM | [7] > 100 µM | [8] > 100 µM | [9] > 100 µM | [10] > 100 µM | [11] > 100 µM | [13] > 100 µM | [14] > 100 µM | [15] > 100 µM | [16] > 100 µM | [17] > 100 µM | [18] > 100 µM | [19] > 100 µM | [20] > 100 µM

C/C(Sc1ccccc1)=C1/CCCN(Cc2ccccc2)C1
inactive: [1] 19.5 µM | [2] 31.4 µM | [3] 17.5 µM | [4] 47.5 µM | [6] 20.6 µM | [7] 36.3 µM | [8] 20.1 µM | [9] 20.2 µM | [10] 25.1 µM | [11] 14.3 µM | [12] 21.8 µM | [13] 15.8 µM | [14] 23.7 µM | [15] 14.5 µM | [16] 17.2 µM | [17] 36.9 µM | [18] 28.9 µM | [19] 18.7 µM | [20] 15.3 µM

NC(CCC(=O)O)(CCC(=O)O)CCC(=O)O
inactive: [1] > 100 µM | [2] > 100 µM | [3] > 100 µM | [4] > 100 µM | [5] > 100 µM | [7] > 100 µM | [8] > 100 µM | [9] > 100 µM | [10] > 100 µM | [11] > 100 µM | [12] > 100 µM | [13] 11.5 µM | [14] > 100 µM | [15] > 100 µM | [16] > 100 µM | [17] > 100 µM | [18] > 100 µM | [19] > 100 µM | [20] > 100 µM

COc1cc2c(cc1OC)CC(N=[N+]=[N-])c1cc(OC)c(OC)cc1/C=C\2 (stereo unspecified)
inactive: [1] 34.1 µM | [2] 59 µM | [3] 37.4 µM | [4] > 100 µM | [5] 28.7 µM | [6] 77.6 µM | [7] 50.9 µM | [8] 30.2 µM | [9] 49.7 µM | [10] 10.8 µM | [12] 43.4 µM | [13] 50.9 µM | [14] > 100 µM | [15] 35.3 µM | [16] 39.5 µM | [17] 34 µM | [18] 83.6 µM | [19] 46 µM | [20] 38.5 µM

COC1(OC)N=C(N)C2(C#N)C(C)=C3NCN(C)N=C3C12C#N (stereo unspecified)
inactive: [1] > 100 µM | [2] > 100 µM | [3] > 100 µM | [4] > 100 µM | [5] > 100 µM | [6] > 100 µM | [7] > 100 µM | [8] > 100 µM | [9] > 100 µM | [10] > 100 µM | [11] > 100 µM | [13] > 100 µM | [14] > 100 µM | [15] > 100 µM | [16] > 100 µM | [17] > 100 µM | [18] > 100 µM | [19] > 100 µM | [20] > 100 µM

NC1=NNC2(C(N)=N1)c1ccccc1-c1ccccc12
inactive: [1] > 10 µM | [2] > 10 µM | [3] > 10 µM | [4] > 10 µM | [5] > 10 µM | [6] > 10 µM | [7] > 10 µM | [8] > 10 µM | [9] > 10 µM | [10] > 10 µM | [11] > 10 µM | [12] > 10 µM | [13] > 10 µM | [15] > 10 µM | [17] > 10 µM | [18] > 10 µM | [19] > 10 µM | [20] 5.13 µM

CC(=O)N1N=C(c2ccccc2Nc2ccccc2C2=NN(C(C)=O)C(c3ccccc3)O2)OC1c1ccccc1 (stereo unspecified)
inactive: [1] > 100 µM | [2] 86.5 µM | [3] 18.6 µM | [4] > 100 µM | [5] 32.5 µM | [6] > 100 µM | [7] > 100 µM | [9] 11.5 µM | [10] 14.7 µM | [11] > 100 µM | [12] 26.7 µM | [13] 36.1 µM | [14] > 100 µM | [15] 25.3 µM | [16] 73.3 µM | [17] > 100 µM | [18] 99.8 µM | [20] 48.5 µM
